These results are taken from US20240132461A1, “FLAVONE DEAZA SPERMIDINE ANALOGUES AND THEIR USE TREATING CANCER” (FLORATEK PHARMA S.A., priority 2021, published 2024).

One data set deals with NCI-H1299. In words: Cell viability assay, non-small cell lung carcinoma cell line NCI-H1299. The data set is classed as cell-based. Particulars: Homo sapiens. The procedure: (§1) Antitumor activity of the compounds and doxorubicin as a positive control was assessed by using the CellTiter-Blue Cell Viability Assay (Promega, #G8082) or CellTiter-Glow® Luminescent Cell Viability assay (Promega # G7572) according to the manufacturer's instructions. The compounds were tested at 5 or 6 concentrations in half-log increments (highest concentration 30 μM-100 μM) in duplicate or triplicate well conditions.
(§2) Tumor cells were grown at 37° C. in a humidified atmosphere with 5% CO2 in RPMI 1640 or DMEM medium, supplemented with 10% (v/v) fetal calf serum and 50 μg/ml gentamicin for up to 20 passages, and were passaged once or twice weekly. Cells were harvested using TrypLE or PBS buffer containing 1 mM EDTA, and the percentage of viable cells is determined using a CASY Model TT cell counter (OMNI Life Science). Cells were harvested from exponential phase cultures, counted and plated in 96 well flat-bottom microtiter plates at a cell density depending on the cell line's growth rate (4,000-20,000 cells/well depending on the cell line's growth rate, up to 60,000 for hematological cancer cell lines) in RPMI 1640 or DMEM medium supplemented with 10% (v/v) fetal calf serum and 50 μg/ml gentamicin (140 μl/well). Cultures were incubated at 37° C. and 5% CO2 in a humidified atmosphere. After 24 h, 10 μl of test compounds or control medium are added, and left on the cells for another 72 h. Compounds were serially diluted in DMSO, transferred in cell culture medium, and added to the assay plates. The DMSO concentration was kept constant at <0.3% v/v across the assay plate. Viability of cells was quantified by the CellTiter-Blue® cell viability assay (Promega G8081) or CellTiter-Glow® Luminescent Cell Viability assay (Promega # G7572). Fluorescence (FU) was measured by using the EnSpire® multimode plate reader (Perkin Elmer) (excitation λ=570 nm, emission λ=600 nm) or luminescent detection of ATP in viable cells was used as parameter for proliferation. Luminescence was measured with the microplate luminometer (Promega or Perkin Elmer).
(§3) Sigmoidal concentration-response curves were fitted to the data points (test-versus-control, T/C values) obtained for each tumor model using 4 parameter non-linear curve fit (Charles River DRS Datawarehouse Software) or with GraphPad prism 5.02 software. IC50 values are reported as absolute IC50 values, being the concentration of test compound at the intersection of the concentration-response curves with T/C=50%

A further data set has as its system MeWo. In words: Cell viability assay, melanoma cell line MeWo. The data set is classed as cell-based. Particulars: Homo sapiens. The procedure:
as §1
as §2, with “Elmer). […]” for “Elmer).”

For the next data set, the system named is U-251. In words: Cell viability assay, brain carcinoma cell line U-251. It counts as cell-based. Particulars: Homo sapiens; U-251 brain carcinoma cell line, 72 h, absolute IC50. Here is the method: as §1, §2, §3
The next data set concerns melanoma cell lines. In words: Cell viability assay, melanoma cell lines (summary). The data set is classed as cell-based. Particulars: summary of Tables 14A and 14B; read-out: IC50s, melanoma cell lines growth. Here is the method:
as §1, §2, §3

For the next data set, the system named is DMS114. In words: Cell viability assay, small cell lung carcinoma cell line DMS114. It counts as cell-based. Particulars: Homo sapiens, DMS-114. The procedure:
as §1
as §2, with “Elmer). […]” for “Elmer).”

The subject of another data set is SH-SY-5Y. In words: Cell viability assay, brain carcinoma cell line SH-SY-5Y. It counts as cell-based. Particulars: Homo sapiens, SH-SY5Y; SH-SY-5Y brain carcinoma cell line, 72 h, absolute IC50. The procedure:
as §1
as §2, with “Elmer). […]” for “Elmer).”

The next data set relates to lung carcinoma cell. In words: Cell viability assay, lung carcinoma cell lines (summary). It counts as cell-based. Particulars: summary of Tables 7A-E; read-out: IC50s, lung carcinoma cell growth. Here is the method: as §1, §2, §3
The test system of the next data set is NCI-H441. In words: Cell viability assay, mucoepidermoid pulmonary and adenocarcinoma, NCI-H441. The data set is classed as cell-based. Particulars: Homo sapiens. Here is the method: as §1
as §2, with “Elmer). […]” for “Elmer).”

The next data set deals with NCI-H292. In words: Cell viability assay, mucoepidermoid pulmonary and adenocarcinoma, NCI-H292. Particulars: Homo sapiens. It counts as cell-based. Here is the method: as §1
as §2, with “Elmer). […]” for “Elmer).”

The next data set has as its system U-87MG. In words: Cell viability assay, brain carcinoma cell line U-87MG. It counts as cell-based. Particulars: Homo sapiens; U-87MG brain carcinoma cell line, 72 h, absolute IC50. The procedure: as §1, §2, §3
In another data set the test system is LN-229. In words: Cell viability assay, brain carcinoma cell line LN-229. The data set is classed as cell-based. Particulars: Homo sapiens; LN-229 brain carcinoma cell line, 72 h, absolute IC50. The procedure:
as §1, §2, §3

The next data set has as its system NCI-H1437. In words: Cell viability assay, non-small lung carcinoma cell line NCI-H1437. The data set is classed as cell-based. Particulars: Homo sapiens. The procedure:
as §1, §2, §3

The next data set relates to A375. In words: Cell viability assay, melanoma cell line A375. The data set is classed as cell-based. Particulars: Homo sapiens, A-375. The procedure:
as §1, §2, §3

Another data set concerns CALU-6. In words: Cell viability assay, non-small cell lung carcinoma cell line CALU-6. Particulars: Homo sapiens; CALU-6 non-small cell lung carcinoma cell line. It counts as cell-based. The procedure: as §1, §2, §3
The subject of a further data set is breast cancer cell. In words: Cell viability assay, breast cancer cell lines (summary). Particulars: summary of Tables 4A and 4B; read-out: IC50s, breast cancer cell growth. The data set is classed as cell-based. The procedure: as §1, §2, §3
The next data set relates to brain cancer cell. In words: Cell viability assay, brain cancer cell lines (summary). The data set is classed as cell-based. Particulars: summary of Tables 3A-D; read-out: IC50s, brain cancer cell growth. Here is the method: as §1, §2, §3
For the next data set, the system named is MDA-MB-468. In words: Cell viability assay, breast carcinoma cell line MDA-MB-468. It counts as cell-based. Particulars: Homo sapiens; MDA-MB-468 breast carcinoma cell line. Here is the method:
as §1
as §2, with “Elmer). […]” for “Elmer).”

Another data set relates to HL-60. In words: Cell viability assay, acute promyelocytic leukemia cell line HL-60. It counts as cell-based. Particulars: Homo sapiens; HL-60 acute promyelocytic leukemia cell line. Here is the method: as §1, §2, §3
In a further data set the test system is MIA-Pa-Ca-2. In words: Cell viability assay, pancreatic carcinoma cell line MIA-Pa-Ca-2. The data set is classed as cell-based. Particulars: Homo sapiens, MIA PaCa-2; MIA-Pa-Ca-2 pancreatic carcinoma cell line. Here is the method: as §1, §2, §3
Data set [1] is described as follows: In vivo maximum tolerated dose in NOG mice. Particulars: for tolerability at the highest dose administered: 8-10 mg/kg i.p., daily or every other day over 8 days; for MTD at 8 days: mouse, in vivo, ip, repeated i.p. administration, MTD not reached, read-out: maximum tolerated dose (MTD), estimated. The procedure:
In order to evaluate the general toxicity of selected SND compounds in an animal model, a maximum tolerated dose (MTD) in NOG mice has been undertaken. Three mice per group were treated daily or every other day over 8 days at various doses between 5 mg/kg and 10 mg/kg. Administration of the compounds was i.p. A stock solution of the compounds (40 mg/ml in DMSO) was prepared and frozen at −20° C. in aliquots for each treatment. […] Body weights were measured before each treatment. Mice were further observed for 1 week after the last treatment.

The test system of data set [2] is pancreatic carcinoma cell. In words: Cell viability assay, pancreatic carcinoma cell lines (summary). It counts as cell-based. Particulars: summary of Table 12; read-out: IC50s, pancreatic carcinoma cell growth. The procedure:
as §1, §2, §3

The test system of another data set is Panc-1. In words: Cell viability assay, pancreatic carcinoma cell line Panc-1. It counts as cell-based. Particulars: Homo sapiens; Panc-1 pancreatic carcinoma cell line. Here is the method: as §1, §2, §3
A further data set deals with H69AR. In words: Cell viability assay, resistant small cell lung carcinoma cell line H69AR. The data set is classed as cell-based. Particulars: H69AR multiple drug resistant small cell lung carcinoma cell line. The procedure: as §1, §2, §3
The multiple drug resistant cell line H69AR obtained from ATCC, was established from NCI-H69 cells that were grown in the presence of increasing concentrations of adriamycin (doxorubicin). The H69AR cell line is approximately 50-fold resistant to adriamycin as compared to the parental NCI-H69 cell line. SND141, SND142, SND143, SND146, SND147 and SND148 inhibited the resistant cell line H69AR with IC50s below 5 μM, as presented in Table 8.

In the case of `COc1c(O)ccc2c(=O)cc(-c3ccc(CN4CCCC4)cc3)oc12` [SND163], the IC50 in the data set on NCI-H1299 was 5800 nM.
In the case of `CN(CCCCc1ccc(-c2cc(=O)c3ccc4c(c3o2)OCO4)cc1)CCCN1CCCCC1` [SND391], the IC50 with MeWo was 1900 nM; with U-251, 3.9 µM; in the data set on melanoma cell lines it was < 10 µM; with DMS114, 1100 nM; in the data set on SH-SY-5Y it was 3 µM; with lung carcinoma cell it was < 20 µM. Moreover, the IC50 is 1200 nM in the data set on NCI-H441; 980 nM in the data set with NCI-H292; 5.1 µM with U-87MG; 2.8 µM in the data set on LN-229; 1.4 µM in the data set with NCI-H1437; 1300 nM in the data set on A375. In addition, the IC50 was 4 µM in the data set with CALU-6; < 10 µM with breast cancer cell; < 10 µM in the data set with brain cancer cell; 1200 nM in the data set on MDA-MB-468; 2400 nM with HL-60.
Turning to `O=c1cc(-c2ccc(CCCCN3CCCCC3)cc2)oc2c3c(ccc12)OCO3` [SND390], the results for the IC50 with LN-229 and in the data set with NCI-H1437 were 7 µM and 10 µM, respectively.
As for `COc1c(O)ccc2c(=O)cc(-c3ccc(CN(C)CCN4CCCCC4)cc3)oc12` [SND167], the IC50 with lung carcinoma cell is < 20 µM; in the data set on NCI-H1299, 2700 nM.
Regarding `COc1c(O)ccc2c(=O)cc(-c3ccc(CCCCN4CCN(C)CC4)cc3)oc12` [SND142, 7-Hydroxy-8-methoxy-2-(4-(4-(4-methylpiperazin-1-yl)butyl)phenyl)-4H-chromen-4-one], the IC50 in the data set on lung carcinoma cell was < 20 µM; with MIA-Pa-Ca-2 it was 1000 nM; in the data set with NCI-H1299, 1000 nM; in [2], < 10 µM; in the data set with CALU-6, 1.7 µM; in the data set on Panc-1 it was 1600 nM. The same molecule had an IC50 in the data set on HL-60 of 3480 nM. Further, the “tolerability at the highest dose administered” value in [1] was “well tolerated”. The MTD at 8 days in [1] is > 10 mg/kg.
Take `COc1c(O)ccc2c(=O)cc(-c3ccc(CCCCN4CCOCC4)cc3)oc12` [SND147, 7-hydroxy-8-methoxy-2-(4-(4-morpholinobutyl)phenyl)-4H-chromen-4-one]: the IC50 is < 20 µM in the data set with lung carcinoma cell; 2020 nM with MIA-Pa-Ca-2; < 10 µM in data set [2]; 2600 nM with H69AR; < 5000 nM with H69AR (Homo sapiens, H69AR); 12.2 µM in the data set on CALU-6. Further, the IC50 in the data set with Panc-1 is 3800 nM. Further, in [1], the “tolerability at the highest dose administered” value is on record as “well tolerated”. For the same molecule, in data set [1], the MTD at 8 days is > 10 mg/kg.
With `CN(CCCCc1ccc(-c2cc(=O)c3ccc4c(c3o2)OCO4)cc1)C12CC3CC(CC(C3)C1)C2` [SND393], the IC50 was 6.8 µM in the data set on U-251; < 10 µM with melanoma cell lines; 4.7 µM in the data set on SH-SY-5Y; < 20 µM with lung carcinoma cell; 7.1 µM with U-87MG; 2700 nM in the data set on A375. Further, the IC50 was 7 µM with CALU-6, < 10 µM in the data set with breast cancer cell, < 10 µM in the data set with brain cancer cell and 3200 nM with MDA-MB-468.

For orientation: MTD means the largest dose that counted as tolerated.
